Assay results published in PubChem BioAssay AID504520 (The Scripps Research Institute Molecular Screening Center, 2011).
Activity calls are given as the source filed them. How the calls were made is not given here.

Tests used:
Assay in all cases: competitive ABPP of LYPLA1 versus anti-target hydrolases – fluorescence, gel-based ABPP, mouse proteome, late-stage follow-up (AID 504520);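 further: soluble proteome from BW5147 murine T cells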
Settings in all cases: FP-rhodamine fluorescence, stronger effect = higher value
LYPLA2 = test system: LYPLA2
ABHD11 = test system: ABHD11
ESD = test system: ESD
[1] = biological target: Platelet-activating factor acetylhydrolase 2, cytoplasmic (Mus musculus) (UniProt Q8VDG7)
LYPLA1 = test system: LYPLA1

Platelet-activating factor acetylhydrolase 2, cytoplasmic (Mus musculus), sequence (Q8VDG7 whole entry, looked up): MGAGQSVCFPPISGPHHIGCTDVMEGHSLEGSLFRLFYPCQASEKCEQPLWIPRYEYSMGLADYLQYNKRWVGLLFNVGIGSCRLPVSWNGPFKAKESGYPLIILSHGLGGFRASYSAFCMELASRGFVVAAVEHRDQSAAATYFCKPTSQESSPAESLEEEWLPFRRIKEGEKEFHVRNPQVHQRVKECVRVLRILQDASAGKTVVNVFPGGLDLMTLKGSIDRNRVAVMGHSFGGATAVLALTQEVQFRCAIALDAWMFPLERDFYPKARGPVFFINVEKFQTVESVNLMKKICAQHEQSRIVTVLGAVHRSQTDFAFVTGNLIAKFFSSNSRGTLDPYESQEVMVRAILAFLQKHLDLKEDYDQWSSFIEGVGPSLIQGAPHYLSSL

Compound	inhibition (LYPLA2; at 0.75 µM)	inhibition (LYPLA2; inhibition, at 0.03 µM)	inhibition (LYPLA2; inhibition, at 0.15 µM)	inhibition (ABHD11; at 0.75 µM)	inhibition (ABHD11; inhibition, at 0.03 µM)	inhibition (ABHD11; inhibition, at 0.15 µM)	inhibition (ESD; at 0.75 µM)	inhibition (ESD; inhibition, at 0.03 µM)	inhibition (ESD; inhibition, at 0.15 µM)	inhibition ([1]; PAFAH2, at 0.75 µM)	inhibition ([1]; PAFAH2, inhibition, at 0.03 µM)	inhibition ([1]; PAFAH2, inhibition, at 0.15 µM)	inhibition (LYPLA1; at 0.75 µM)	inhibition (LYPLA1; inhibition, at 0.03 µM)	inhibition (LYPLA1; inhibition, at 0.15 µM)
COCC1CCCCN1C(=O)n1ncc(C(O)(c2ccccc2)c2ccccc2)n1 (stereo not given)	0% (inactive)	0%	0%	100%	100%	100%	0% (inactive)	0%	0%	0% (inactive)	0%	0%	0% (inactive)	0%	0%
O=C(OC(c1ccccc1)c1cnn(C(=O)N2CCCCC2)n1)N1CCCCC1 (stereo not given)	25% (inactive)	0%	0%	100%	100%	100%	50% (inactive)	0%	25%	100%	0%	100%	100%	100%	100%
O=C(N1CCCC(Cc2ccccc2)C1)n1cc(C(O)(c2ccccc2)c2ccccc2)nn1 (stereo not given)	25% (inactive)	0%	0%	100%	100%	100%	0% (inactive)	0%	0%	0% (inactive)	0%	0%	100%	0%	50%
CCC1CCCCN1C(=O)n1ncc(C(O)(c2ccccc2)c2ccccc2)n1 (stereo not given)	0% (inactive)	0%	0%	100%	100%	100%	0% (inactive)	0%	0%	0% (inactive)	0%	0%	0% (inactive)	0%	0%
O=C(N1CCCCC1)n1ncc(C(O)c2ccccc2)n1 (stereo not given)	0% (inactive)	0%	0%	100%	75%	100%	0% (inactive)	0%	0%	0% (inactive)	0%	0%	100%	50%	50%
O=C(N1CCCCC1)n1ncc(C(O)(c2ccccc2)c2ccccc2)n1	0% (inactive)	0%	0%	100%	100%	100%	25% (inactive)	0%	0%	0% (inactive)	0%	0%	100%	50%	100%
CC1CCN(C(=O)n2ncc(C(O)(c3ccccc3)c3ccccc3)n2)CC1	50% (inactive)	0%	0%	100%	100%	100%	0% (inactive)	0%	0%	25% (inactive)	0%	0%	100%	50%	100%
O=C(N1CCc2ccccc2C1)n1ncc(C(O)(c2ccccc2)c2ccccc2)n1	0% (inactive)	0%	0%	100%	100%	100%	25% (inactive)	0%	10%	100%	0%	100%	50% (inactive)	0%	0%

Results, then the molecule that gave them:

inhibition (LYPLA2; at 0.75 µM)	inhibition (LYPLA2; inhibition, at 0.03 µM)	inhibition (LYPLA2; inhibition, at 0.15 µM)	inhibition (ABHD11; at 0.75 µM)	inhibition (ABHD11; inhibition, at 0.03 µM)	inhibition (ABHD11; inhibition, at 0.15 µM)	inhibition (ESD; at 0.75 µM)	inhibition (ESD; inhibition, at 0.03 µM)	inhibition (ESD; inhibition, at 0.15 µM)	inhibition ([1]; PAFAH2, at 0.75 µM)	inhibition ([1]; PAFAH2, inhibition, at 0.03 µM)	inhibition ([1]; PAFAH2, inhibition, at 0.15 µM)	inhibition (LYPLA1; at 0.75 µM)	inhibition (LYPLA1; inhibition, at 0.03 µM)	inhibition (LYPLA1; inhibition, at 0.15 µM)	Compound
0% (inactive)	0%	0%	25% (inactive)	0%	0%	0% (inactive)	0%	0%	50% (inactive)	0%	0%	0% (inactive)	0%	0%	COc1ccc2cc(-c3cnn(C(=O)N(c4ccccc4)c4ccccc4)n3)ccc2c1
0% (inactive)	0%	0%	50% (inactive)	0%	0%	0% (inactive)	0%	0%	50% (inactive)	0%	0%	0% (inactive)	0%	0%	O=C(N(c1ccccc1)c1ccccc1)n1ncc(-c2cc(F)cc(F)c2)n1
0% (inactive)	0%	0%	0% (inactive)	0%	0%	0% (inactive)	0%	0%	75% (inactive)	0%	0%	0% (inactive)	0%	0%	O=C(N(c1ccccc1)c1ccccc1)n1ncc(-c2ccc(Oc3ccccc3)cc2)n1
0% (inactive)	0%	0%	100%	0%	100%	0% (inactive)	0%	0%	0% (inactive)	0%	0%	0% (inactive)	0%	0%	O=C(N(c1ccccc1)c1ccc(Br)cc1)n1ncc(C(O)(c2ccccc2)c2ccccc2)n1
0% (inactive)	0%	0%	100%	0%	100%	0% (inactive)	0%	0%	0% (inactive)	0%	0%	0% (inactive)	0%	0%	O=C(N(c1ccccc1)c1cccc(Br)c1)n1ncc(C(O)(c2ccccc2)c2ccccc2)n1
0% (inactive)	0%	0%	100%	0%	100%	0% (inactive)	0%	0%	25% (inactive)	0%	0%	0% (inactive)	0%	0%	O=C(N(c1ccccc1)c1ccc2ccccc2c1)n1ncc(C(O)(c2ccccc2)c2ccccc2)n1
0% (inactive)	0%	0%	0% (inactive)	0%	0%	0% (inactive)	0%	0%	25% (inactive)	0%	0%	0% (inactive)	0%	0%	O=C(N(c1ccccc1)c1ccccc1)n1ncc(C(O)(c2ccccc2)c2ccccc2)n1
0% (inactive)	0%	0%	50% (inactive)	0%	0%	0% (inactive)	0%	0%	0% (inactive)	0%	0%	0% (inactive)	0%	0%	CC(C)CC(O)(CC(C)C)c1cnn(C(=O)N(c2ccccc2)c2ccccc2)n1
0% (inactive)	0%	0%	75% (inactive)	0%	0%	0% (inactive)	0%	0%	25% (inactive)	0%	0%	0% (inactive)	0%	0%	CN(C(=O)n1ncc(C(O)(c2ccccc2)c2ccccc2)n1)c1ccccc1
0% (inactive)	0%	0%	0% (inactive)	0%	0%	0% (inactive)	0%	0%	75% (inactive)	0%	0%	0% (inactive)	0%	0%	O=C(N(c1ccccc1)c1ccccc1)n1ncc(-c2ccc(-c3ccccc3)cc2)n1
